Patent US9730446B2, “Herbicidal compositions comprising 4-amino-3-chloro-6-(4-chloro-2-fluoro-3-methoxyphenyl)pyridine-2-carboxylic acid or a derivative thereof and propyzamide” (Dow AgroSciences LLC, priority 2013, dated 2017)

Assays:
Type in all cases: in vivo
[1] = tested on: VIOTR Viola tricolor L. (wild violet); assay: Postemergent herbicidal activity, greenhouse; settings: foliar, 14 d
Description: (§1) Evaluation of Postemergent Herbicidal Activity. Seeds or nutlets of the desired test plant species were planted in Sun Gro Metro-Mix® 360 planting mixture, which typically has a pH of 6.0 to 6.8 and an organic matter content of about 30 percent, in plastic pots with a surface area of 64 square centimeters (cm^2). […] The plants were grown for 7-21 days (d) in a greenhouse with an approximate 15 hour (h) photoperiod which was maintained at about 23-29° C. during the day and 22-28° C. during the night. Nutrients and water were added on a regular basis and supplemental lighting was provided with overhead metal halide 1000-Watt lamps as necessary. The plants were employed for testing when they reached the first or second true leaf stage.
(§2) A weighed amount, determined by the highest rate to be tested, of each test compound was placed in a 25 milliliter (mL) glass vial and was dissolved in 4 mL of a 97:3 volume per volume (v/v) mixture of acetone and dimethyl sulfoxide (DMSO) to obtain concentrated stock solutions. […] The concentrated stock solutions obtained were diluted with 20 mL of an aqueous mixture containing acetone, water, isopropyl alcohol, DMSO, Atplus 411F crop oil concentrate, and Triton® X-155 surfactant in a 48.5:39:10:1.5:1.0:0.02 v/v ratio to obtain spray solutions containing the highest application rates. Additional application rates were obtained by serial dilution of 12 mL of the high rate solution into a solution containing 2 mL of a 97:3 v/v mixture of acetone and DMSO and 10 mL of an aqueous mixture containing acetone, water, isopropyl alcohol, DMSO, Atplus 411F crop oil concentrate, and Triton X-155 surfactant in a 48.5:39:10:1.5:1.0:0.02 v/v ratio to obtain 1/2×, 1/4×, 1/8× and 1/16× rates of the high rate. Compound requirements are based upon a 12 mL application volume at a rate of 187 liters per hectare (L/ha). Formulated compounds were applied to the plant material with an overhead Mandel track sprayer equipped with 8002E nozzles calibrated to deliver 187 L/ha over an application area of 0.503 square meters (m^2) at a spray height of 18 inches (43 cm) above the average plant canopy height. Control plants were sprayed in the same manner with the solvent blank.
(§3) Treatments consisted of the methyl ester of 4-amino-3-chloro-6-(4-chloro-2-fluoro-3-methoxyphenyl)pyridine-2-carboxylic acid (Cmpd 1) as technical grade material and propyzamide (Kerb 50 W) alone and in combination.
(§4) The treated plants and control plants were placed in a greenhouse as described above and watered by subirrigation to prevent wash-off of the test compounds. After 14 d, the condition of the test plants as compared with that of the untreated plants was determined visually and scored on a scale of 0 to 100 percent where 0 corresponds to no injury and 100 corresponds to complete kill.
(§5) Colby's equation was used to determine the herbicidal effects expected from the mixtures (Colby, S. R. Calculation of the synergistic and antagonistic response of herbicide combinations. Weeds 1967, 15, 20-22). More specifically, the following equation was used to calculate the expected activity of mixtures containing two active ingredients, A and B: Expected=A+B−(A×B/100) A=observed efficacy of active ingredient A at the same concentration as used in the mixture; B=observed efficacy of active ingredient B at the same concentration as used in the mixture.

[2] = tested on: SETFA Setaria faberi Herrm. (giant foxtail); assay: Postemergent herbicidal activity, greenhouse; settings: foliar, 14 d
Description: as §1, §2, §3, §4, §5

[3] = tested on: ABUTH Abutilon theophrasti Medik. (velvetleaf); assay: Postemergent herbicidal activity, greenhouse; settings: foliar, 14 d
Description: as §1, §2, §3, §4, §5

[4] = tested on: CIRAR Cirsium arvense (L.) Scop. (Canada thistle); assay: Postemergent herbicidal activity, greenhouse; settings: foliar, 14 d
Description: as §1, §2, §3, §4, §5

[5] = tested on: STEME Stellaria media (L.) Vill. (common chickweed); assay: Postemergent herbicidal activity, greenhouse; settings: foliar, 14 d
Description: as §1, §2, §3, §4, §5

[6] = tested on: GLXMA Glycine max (volunteer soybean); assay: Postemergent herbicidal activity, greenhouse; settings: foliar, 14 d
Description: as §1, §2, §3, §4, §5

[7] = tested on: CHEAL Chenopodium album L. (common lambsquarters); assay: Postemergent herbicidal activity, greenhouse; settings: foliar, 14 d
Description: as §1, §2, §3, §4, §5

[8] = tested on: BRSNW Brassica napus (winter oilseed rape); assay: Postemergent herbicidal activity, greenhouse; settings: foliar, 14 d
Description: as §1, §2, §3, §4, §5

[9] = tested on: IPOHE Ipomoea hederacea (L.) Jacq. (ivyleaf morningglory); assay: Postemergent herbicidal activity, greenhouse; settings: foliar, 14 d
Description: as §1, §2, §3, §4, §5

[10] = tested on: EPHHL Euphorbia heterophylla L. (wild poinsettia); assay: Postemergent herbicidal activity, greenhouse; settings: foliar, 14 d
Description: as §1, §2, §3, §4, §5

[11] = tested on: AMARE Amaranthus retroflexus L. (redroot pigweed); assay: Postemergent herbicidal activity, greenhouse; settings: foliar, 14 d
Description: as §1, §2, §3, §4, §5

[12] = tested on: POLCO Polygonum convolvulus L. (wild buckwheat); assay: Postemergent herbicidal activity, greenhouse; settings: foliar, 14 d
Description: as §1, §2, §3, §4, §5

[13] = tested on: POAAN Poa annua (annual bluegrass); assay: Field trial, visual weed control in winter oilseed rape
Description: Multiple small plot research experiments were conducted to evaluate efficacy and tolerance of winter oilseed rape to compositions described herein. Typical small plots (2-4×4-10 meters (m)) were used in growers' fields under natural conditions with normal commercial cultural practices. Backpack sprayers were used to apply all treatments based on unit area. The methyl ester of formula (I) and propyzamide were tested alone and in combination at varying rates. […] Crop stage was at Growth Stage 39-50. Visual crop injury ratings were collected 32, 49, and 74 days after treatment. […] The reported values are means. […] The following abbreviations are used in Tables 2-4: • GERSS Geranium sp. (cranesbill) • POAAN Poa annua (annual bluegrass) • VERSS Veronica sp.

COC(=O)c1nc(-c2ccc(Cl)c(OC)c2F)cc(N)c1Cl [Cmpd I, methyl ester of 4-amino-3-chloro-6-(4-chloro-2-fluoro-3-methoxyphenyl)pyridine-2-carboxylic acid]
% control rated visually, ob (observed) ([1]; Cmpd I 2.5 g ae/ha): 30%
% control rated visually, ob (observed) ([1]; Cmpd I 5 g ae/ha): 43%
% control rated visually, ob (observed) ([1]; Cmpd I 10 g ae/ha): 62%
% control rated visually, ob (observed) ([2]; Cmpd I 2.5 g ae/ha): 0%
% control rated visually, ob (observed) ([2]; Cmpd I 5 g ae/ha): 5%
% control rated visually, ob (observed) ([2]; Cmpd I 10 g ae/ha): 35%
% control rated visually, ob (observed) ([3]; Cmpd I 2.5 g ae/ha): 87%
% control rated visually, ob (observed) ([3]; Cmpd I 5 g ae/ha): 85%
% control rated visually, ob (observed) ([3]; Cmpd I 10 g ae/ha): 90%
% control rated visually, ob (observed) ([4]; Cmpd I 2.5 g ae/ha): 47%
% control rated visually, ob (observed) ([4]; Cmpd I 5 g ae/ha): 53%
% control rated visually, ob (observed) ([4]; Cmpd I 10 g ae/ha): 65%
% control rated visually, ob (observed) ([5]; Cmpd I 2.5 g ae/ha): 50%
% control rated visually, ob (observed) ([5]; Cmpd I 5 g ae/ha): 57%
% control rated visually, ob (observed) ([5]; Cmpd I 10 g ae/ha): 72%
% control rated visually, ob (observed) ([6]; Cmpd I 2.5 g ae/ha): 80%
% control rated visually, ob (observed) ([6]; Cmpd I 5 g ae/ha): 87%
% control rated visually, ob (observed) ([6]; Cmpd I 10 g ae/ha): 100%
% control rated visually, ob (observed) ([7]; Cmpd I 2.5 g ae/ha): 82%
% control rated visually, ob (observed) ([7]; Cmpd I 5 g ae/ha): 90%
% control rated visually, ob (observed) ([7]; Cmpd I 10 g ae/ha): 91%
% control rated visually, ob (observed) ([8]; Cmpd I 2.5 g ae/ha): 0%
% control rated visually, ob (observed) ([8]; Cmpd I 5 g ae/ha): 0%
% control rated visually, ob (observed) ([8]; Cmpd I 10 g ae/ha): 10%
% control rated visually, ob (observed) ([9]; Cmpd I 2.5 g ae/ha): 20%
% control rated visually, ob (observed) ([9]; Cmpd I 5 g ae/ha): 38%
% control rated visually, ob (observed) ([9]; Cmpd I 10 g ae/ha): 43%
% control rated visually, ob (observed) ([10]; Cmpd I 2.5 g ae/ha): 85%
% control rated visually, ob (observed) ([10]; Cmpd I 5 g ae/ha): 93%
% control rated visually, ob (observed) ([10]; Cmpd I 10 g ae/ha): 100%
% control rated visually, ob (observed) ([11]; Cmpd I 2.5 g ae/ha): 50%
% control rated visually, ob (observed) ([11]; Cmpd I 5 g ae/ha): 58%
% control rated visually, ob (observed) ([11]; Cmpd I 10 g ae/ha): 77%
% control rated visually, ob (observed) ([12]; Cmpd I 2.5 g ae/ha): 35%
% control rated visually, ob (observed) ([12]; Cmpd I 5 g ae/ha): 25%
% control rated visually, ob (observed) ([12]; Cmpd I 10 g ae/ha): 48%
% control rated visually, ob (observed) ([13]; Cmpd I 1.25 g ae/ha, 32 DAAA): 7.5%
% control rated visually, ob (observed) ([13]; Cmpd I 1.25 g ae/ha, 58 DAAA): 11.3%
% control rated visually, ob (observed) ([13]; Cmpd I 1.25 g ae/ha, 80 DAAA): 16.3%
% control rated visually, ob (observed) ([13]; Cmpd I 2.5 g ae/ha, 32 DAAA): 10.0%
% control rated visually, ob (observed) ([13]; Cmpd I 2.5 g ae/ha, 58 DAAA): 15.0%
% control rated visually, ob (observed) ([13]; Cmpd I 2.5 g ae/ha, 80 DAAA): 15.0%
% control rated visually, ob (observed) ([13]; Cmpd I 5 g ae/ha, 32 DAAA): 6.3%
% control rated visually, ob (observed) ([13]; Cmpd I 5 g ae/ha, 58 DAAA): 12.5%
% control rated visually, ob (observed) ([13]; Cmpd I 5 g ae/ha, 80 DAAA): 6.3%
% control rated visually, ob (observed) ([13]; Cmpd I 7.5 g ae/ha, 32 DAAA): 28.8%
% control rated visually, ob (observed) ([13]; Cmpd I 7.5 g ae/ha, 58 DAAA): 28.8%
% control rated visually, ob (observed) ([13]; Cmpd I 7.5 g ae/ha, 80 DAAA): 18.8%
